For series [1], the target named is T1, GacA (dTDP-4-dehydrorhamnose reductase, RmlD) (Streptococcus pyogenes, UniProt Q9A0G6).
T1 construct: full-length gacA (AAZ51220.1; M5005_Spy_0602), chemically biotinylated
In words: SPR (Biacore T200), equilibrium fit, […]°C. The class given is binding. Background: In SPR one partner is held on a chip, and binding of the other changes the refractive index at the surface.

Series [2] deals with the molecule itself. Briefly: SEC; size-exclusion chromatography of purified wild-type SeRmlD and triple mutant, retention compared with GacA. (Size exclusion chromatography separates by hydrodynamic size, large species first.)

Broadly, the Kd is a measure of binding affinity in units of concentration. A lower Kd goes with tighter binding. By stoichiometry N is commonly meant a count of units in the complex or per binding partner.

T1 sequence (Q9A0G6 entry or part of it): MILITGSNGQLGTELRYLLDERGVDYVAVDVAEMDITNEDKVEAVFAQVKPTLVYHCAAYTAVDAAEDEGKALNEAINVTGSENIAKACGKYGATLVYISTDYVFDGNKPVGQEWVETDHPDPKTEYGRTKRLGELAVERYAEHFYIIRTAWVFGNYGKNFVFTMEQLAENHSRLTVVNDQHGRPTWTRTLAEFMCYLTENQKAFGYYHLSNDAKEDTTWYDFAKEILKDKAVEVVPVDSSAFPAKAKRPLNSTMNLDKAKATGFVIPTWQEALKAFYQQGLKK

As for `NC(=O)C1=CN([C@@H]2O[C@H](COP(=O)(O)OP(=O)(O)OC[C@H]3O[C@@H](n4cnc5c(N)ncnc54)[C@H](O)[C@@H]3O)[C@@H](O)[C@H]2O)C=CC1` [NADH], the equilibrium dissociation constant (Kd) in series [1] turned out to be 110 µM.

On to `NC(=O)C1=CN([C@@H]2O[C@H](COP(=O)(O)OP(=O)(O)OC[C@H]3O[C@@H](n4cnc5c(N)ncnc54)[C@H](OP(=O)(O)O)[C@@H]3O)[C@@H](O)[C@H]2O)C=CC1` [NADPH], for which, in series [1], the Kd amounted to 390 µM.

B1: RmlD (dTDP-4-dehydrorhamnose reductase) from Salmonella enterica serovar Typhimurium, wild type (enzyme, Salmonella enterica (LT2), UniProt P26392 1-299, looked up)
chain: MNILLFGKTGQVGWELQRSLAPVGNLIALDVHSKEFCGDFSNPKGVAETVRKLRPDVIVNAAAHTAVDKAESEPELAQLLNATSVEAIAKAANETGAWVVHYSTDYVFPGTGDIPWQETDATSPLNVYGKTKLAGEKALQDNCPKHLIFRTSWVYAGKGNNFAKTMLRLAKERQTLSVINDQYGAPTGAELLADCTAHAIRVALNKPEVAGLYHLVAGGTTTWHDYAALVFDEARKAGITLALTELNAVPTSAYPTPASRPGNSRLNTEKFQRNFDLILPQWELGVKRMLTEMFTTTTI
notes: RmlD, Salmonella enterica serovar Typhimurium LT2, full-length rmlD (GI 16420628); also called SeRmlD; wild-type SeRmlD; source: E. coli BL21(DE3), expressed and purified as described for GacA; not shown: His6, N-terminal, cleaved; GST, N-terminal, cleaved
In the case of B1, the “stoichiometry N” value in series [2] is 2.

Values taken from paper PMC4832382, “GacA is essential for Group A S treptococcus and defines a new class of monomeric dTDP‐4‐dehydrorhamnose reductases (RmlD)” (Molecular Microbiology, 2015).
